Columns and labels:
Format in all cases: functional
Details in all cases: route intraperitoneal
Rattus norvegicus [1] = experiment: Inhibition of dopamine-beta-hydroxylase in Wistar rat assessed as reduction of norepinephrine level in brain at 50 mg/kg, ip after 6 hrs (reference value: 0.67 +/- 0.02 ug/g)
Rattus norvegicus [2] = experiment: Inhibition of dopamine-beta-hydroxylase in Wistar rat assessed as reduction of adrenal catecholamine level at 50 mg/kg, ip after 24 hrs assessed per adrenal pair (reference value: 10.6 +/- 0.7 ug)
Rattus norvegicus [3] = experiment: Inhibition of dopamine-beta-hydroxylase in Wistar rat assessed as reduction of norepinephrine level in heart at 50 mg/kg, ip after 3 hrs (reference value: 0.55 +/- 0.04 ug/g)
Rattus norvegicus [4] = experiment: Inhibition of dopamine-beta-hydroxylase in Wistar rat assessed as reduction of adrenal catecholamine level at 50 mg/kg, ip after 3 hrs assessed per adrenal pair (reference value: 10.6 +/- 0.7 ug)
Rattus norvegicus [5] = experiment: Inhibition of dopamine-beta-hydroxylase in Wistar rat assessed as reduction of adrenal catecholamine level at 50 mg/kg, ip after 6 hrs assessed per adrenal pair (reference value: 10.6 +/- 0.7 ug)
Rattus norvegicus [6] = experiment: Inhibition of dopamine-beta-hydroxylase in Wistar rat assessed as reduction of norepinephrine level in heart at 50 mg/kg, ip after 6 hrs (reference value: 0.55 +/- 0.04 ug/g)
Rattus norvegicus [7] = experiment: Inhibition of dopamine-beta-hydroxylase in Wistar rat assessed as reduction of norepinephrine level in brain at 50 mg/kg, ip after 24 hrs (reference value: 0.67 +/- 0.02 ug/g)
Rattus norvegicus [8] = experiment: Inhibition of dopamine-beta-hydroxylase in Wistar rat assessed as reduction of norepinephrine level in heart at 50 mg/kg, ip after 24 hrs (reference value: 0.55 +/- 0.04 ug/g)
Rattus norvegicus [9] = experiment: Inhibition of dopamine-beta-hydroxylase in Wistar rat assessed as reduction of norepinephrine level in brain at 50 mg/kg, ip after 3 hrs (reference value: 0.67 +/- 0.02 ug/g)

Structure (SMILES): Br.CCCCCn1cnc(N)c2ncnc1-2.Cl
- Activity (Rattus norvegicus [1]): 0.62 µg/g
- Activity (Rattus norvegicus [2]): 11.3 µg
- Activity (Rattus norvegicus [3]): 0.59 µg/g
- Activity (Rattus norvegicus [4]): 14.1 µg
- Activity (Rattus norvegicus [5]): 12.1 µg
- Activity (Rattus norvegicus [6]): 0.57 µg/g
- Activity (Rattus norvegicus [7]): 0.62 µg/g
- Activity (Rattus norvegicus [8]): 0.56 µg/g
- Activity (Rattus norvegicus [9]): 0.65 µg/g
